The values that follow come from ChEMBL document CHEMBL1201862, “PubChem BioAssay data set” (2004).

SMILES strings stand for the structures. Activity calls are given as the source filed them.

For assay [1], the system named is INS1. The experiment in a line: INS-1E survival protection against cytokine death – cell-based, luminescence, retest, dose response (AID 449756).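 Further: cell death triggered by IL-1 beta plus TNF-alpha plus IFN-gamma mixture; protective hits raise ATP signal compared with cytokine alone wells.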 It is filed as functional. Particulars: Rattus norvegicus.
The target in assay [2] is Cytochrome P450 2C19 (Homo sapiens, UniProt P33261). The experiment in a line: Cytochrome panel assay with activity outcomes. Panel member name: p450-cyp2c19 Compounds with AC50 equal or less than 10 uM are considered active. It is filed as functional. Particulars: read-out: AC50.
Chain of Cytochrome P450 2C19 (P33261 whole entry): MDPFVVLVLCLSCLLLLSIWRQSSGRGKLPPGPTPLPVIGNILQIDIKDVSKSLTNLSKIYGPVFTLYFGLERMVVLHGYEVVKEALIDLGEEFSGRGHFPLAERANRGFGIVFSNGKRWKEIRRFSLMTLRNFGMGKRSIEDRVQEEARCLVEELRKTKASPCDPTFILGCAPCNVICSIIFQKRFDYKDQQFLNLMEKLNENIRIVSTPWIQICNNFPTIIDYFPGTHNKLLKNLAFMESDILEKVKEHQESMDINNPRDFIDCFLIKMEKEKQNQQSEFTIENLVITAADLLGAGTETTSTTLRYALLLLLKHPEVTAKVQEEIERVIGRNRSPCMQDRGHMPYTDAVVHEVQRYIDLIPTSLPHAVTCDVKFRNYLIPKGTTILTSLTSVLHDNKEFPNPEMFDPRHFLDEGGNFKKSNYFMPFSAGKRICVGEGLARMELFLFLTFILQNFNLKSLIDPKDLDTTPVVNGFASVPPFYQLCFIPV
The target of assay [3] is T1, Cytochrome P450 1A2 (Homo sapiens, UniProt P05177).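 Further: PubChem cytochrome P450 panel assay, CYP1A2 panel member.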
T1 sequence (P05177 whole entry): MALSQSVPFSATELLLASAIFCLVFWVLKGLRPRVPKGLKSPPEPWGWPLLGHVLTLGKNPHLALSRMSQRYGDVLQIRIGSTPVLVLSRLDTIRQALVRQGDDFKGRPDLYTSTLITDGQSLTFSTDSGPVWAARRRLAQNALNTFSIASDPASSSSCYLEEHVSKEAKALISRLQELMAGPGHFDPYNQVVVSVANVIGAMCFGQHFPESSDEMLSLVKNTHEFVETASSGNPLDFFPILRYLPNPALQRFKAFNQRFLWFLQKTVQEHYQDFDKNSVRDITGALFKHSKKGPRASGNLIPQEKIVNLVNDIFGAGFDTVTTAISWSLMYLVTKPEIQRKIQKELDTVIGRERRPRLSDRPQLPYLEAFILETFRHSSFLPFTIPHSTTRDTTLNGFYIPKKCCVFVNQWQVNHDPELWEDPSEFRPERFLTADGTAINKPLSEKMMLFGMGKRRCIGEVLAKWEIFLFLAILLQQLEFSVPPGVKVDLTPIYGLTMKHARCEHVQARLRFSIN

Assay [4] concerns the target T2, Corticotropin-releasing factor receptor 2/Corticotropin-releasing factor-binding protein (Homo sapiens, UniProt P24387+Q13324).
T2 sequence (Q13324 whole entry): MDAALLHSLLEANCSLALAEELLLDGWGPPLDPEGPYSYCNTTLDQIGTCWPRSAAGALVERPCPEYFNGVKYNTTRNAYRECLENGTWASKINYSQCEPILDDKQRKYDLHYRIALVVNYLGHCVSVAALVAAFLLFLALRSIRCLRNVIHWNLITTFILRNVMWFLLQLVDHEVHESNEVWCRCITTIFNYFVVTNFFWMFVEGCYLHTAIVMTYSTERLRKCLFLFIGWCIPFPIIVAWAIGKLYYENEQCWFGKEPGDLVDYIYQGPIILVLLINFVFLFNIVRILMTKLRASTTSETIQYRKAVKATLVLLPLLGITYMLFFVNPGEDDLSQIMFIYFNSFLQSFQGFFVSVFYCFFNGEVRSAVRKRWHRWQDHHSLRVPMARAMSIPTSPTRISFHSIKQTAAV
T2 sequence (P24387 whole entry): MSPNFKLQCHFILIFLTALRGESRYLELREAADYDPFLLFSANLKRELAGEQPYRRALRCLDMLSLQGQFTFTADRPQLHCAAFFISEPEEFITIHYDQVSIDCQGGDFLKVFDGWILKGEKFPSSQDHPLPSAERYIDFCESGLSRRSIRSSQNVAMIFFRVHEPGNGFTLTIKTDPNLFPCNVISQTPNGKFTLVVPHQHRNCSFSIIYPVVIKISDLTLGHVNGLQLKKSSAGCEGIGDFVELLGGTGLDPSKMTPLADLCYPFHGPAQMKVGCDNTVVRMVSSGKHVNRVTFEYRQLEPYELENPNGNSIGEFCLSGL
The experiment in a line: Dose Response confirmation of uHTS hits for small molecule antagonists of the CRF-binding protein and CRF-R2 receptor complex. Particulars: read-out: IC50_Mean. It counts as functional.

Assay [5] concerns the target T2, Corticotropin-releasing factor receptor 2/Corticotropin-releasing factor-binding protein. The experiment in a line: activators of CRF receptor 2 with binding protein – uHTS hits, confirmation (AID 602473). It is filed as functional. The settings on record: read-out: EC50_Mean.
Assay [6] has as its target Cytochrome P450 2D6 (Homo sapiens, UniProt P10635).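 Further: CYP2D6 member of a cytochrome P450 panel assay.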
Assay [7] addresses Cytochrome P450 2C9 (Homo sapiens, UniProt P11712).
Assay [8] is described as follows: Luminescence Cell-Based Dose Retest to Confirm Inhibitors of Cancer Stem Cells. [Related pubchem assays (depositor defined):AID2717, AID2721]. It is filed as functional. Particulars: Homo sapiens.
Assay [9] addresses Cytochrome P450 3A4 (Homo sapiens, UniProt P08684).
Assay [10] has as its system Streptococcus. The experiment in a line: GAS UMAA2166 growth inhibition – luminescence, BacTiterGlo, counter-screen for streptokinase expression inhibitor project, dose response (AID 1915).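 Further: potency for reduction of bacterial viability or growth.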 It counts as functional, organism-based.
Assay [11] relates to Streptococcus sp. 'group A'. The experiment in a line: Streptococcus pyogenes SK(-)GAS viability under kanamycin – luminescence, BacTiterGlo, confirmation, counter-screen for streptokinase expression inhibitor project, dose response (AID 1900). It counts as functional, organism-based. For orientation: A counterscreen serves to expose hits that act by an unwanted route or on another target.

Assay [12] concerns the target T3, Rac GTPase-activating protein 1 (Homo sapiens, UniProt Q9H0H5).
T3 sequence (Q9H0H5 whole entry): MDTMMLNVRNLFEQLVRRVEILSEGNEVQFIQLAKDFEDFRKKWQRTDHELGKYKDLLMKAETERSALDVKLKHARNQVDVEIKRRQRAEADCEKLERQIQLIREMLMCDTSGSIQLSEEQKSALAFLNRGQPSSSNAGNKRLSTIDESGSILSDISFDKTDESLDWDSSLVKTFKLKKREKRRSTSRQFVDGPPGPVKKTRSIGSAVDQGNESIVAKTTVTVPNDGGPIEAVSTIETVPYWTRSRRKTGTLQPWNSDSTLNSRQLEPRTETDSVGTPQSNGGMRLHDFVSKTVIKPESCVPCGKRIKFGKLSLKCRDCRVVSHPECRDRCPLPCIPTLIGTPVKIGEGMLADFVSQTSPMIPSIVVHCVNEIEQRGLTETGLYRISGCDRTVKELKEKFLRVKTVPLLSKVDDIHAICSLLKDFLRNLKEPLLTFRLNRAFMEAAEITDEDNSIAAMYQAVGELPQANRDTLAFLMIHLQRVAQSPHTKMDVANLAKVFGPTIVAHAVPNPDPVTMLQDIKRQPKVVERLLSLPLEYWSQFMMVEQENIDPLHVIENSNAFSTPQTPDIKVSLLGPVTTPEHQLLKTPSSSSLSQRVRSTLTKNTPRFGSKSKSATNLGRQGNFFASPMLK
The experiment in a line: blockers of MgcRacGAP-driven Rac1 GTP hydrolysis – biochemical, ADP Hunter fluorescence, primary and confirmatory, confirmation (AID 624330). It counts as functional.

Chain of Cytochrome P450 2D6 (P10635 whole entry): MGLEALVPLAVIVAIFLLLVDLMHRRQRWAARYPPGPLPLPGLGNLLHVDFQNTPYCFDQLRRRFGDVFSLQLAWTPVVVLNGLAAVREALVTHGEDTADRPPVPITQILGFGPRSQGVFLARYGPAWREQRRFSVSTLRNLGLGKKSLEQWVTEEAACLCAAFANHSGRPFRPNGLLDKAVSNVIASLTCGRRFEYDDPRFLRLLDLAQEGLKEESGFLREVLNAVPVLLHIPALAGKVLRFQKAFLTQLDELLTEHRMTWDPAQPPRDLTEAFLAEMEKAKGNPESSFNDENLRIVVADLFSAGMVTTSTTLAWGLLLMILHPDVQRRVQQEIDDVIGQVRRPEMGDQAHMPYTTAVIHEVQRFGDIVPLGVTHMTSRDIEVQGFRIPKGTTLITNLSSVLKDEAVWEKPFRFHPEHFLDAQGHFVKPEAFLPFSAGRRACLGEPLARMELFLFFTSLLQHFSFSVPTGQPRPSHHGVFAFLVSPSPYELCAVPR
Chain of Cytochrome P450 3A4 (P08684 whole entry): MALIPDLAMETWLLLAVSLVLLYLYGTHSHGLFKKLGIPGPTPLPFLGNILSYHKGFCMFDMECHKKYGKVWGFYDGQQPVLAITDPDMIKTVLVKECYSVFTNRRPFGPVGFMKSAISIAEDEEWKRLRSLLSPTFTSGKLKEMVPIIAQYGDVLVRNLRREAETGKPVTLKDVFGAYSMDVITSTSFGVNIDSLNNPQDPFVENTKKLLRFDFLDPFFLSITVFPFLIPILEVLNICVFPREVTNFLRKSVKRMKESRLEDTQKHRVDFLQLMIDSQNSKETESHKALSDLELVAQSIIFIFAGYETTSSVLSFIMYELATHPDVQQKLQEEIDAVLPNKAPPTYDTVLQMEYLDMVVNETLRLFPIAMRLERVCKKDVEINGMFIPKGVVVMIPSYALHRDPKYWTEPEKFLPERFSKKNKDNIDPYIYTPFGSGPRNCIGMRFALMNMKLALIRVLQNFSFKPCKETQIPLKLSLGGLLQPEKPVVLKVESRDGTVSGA
Chain of Cytochrome P450 2C9 (P11712 whole entry): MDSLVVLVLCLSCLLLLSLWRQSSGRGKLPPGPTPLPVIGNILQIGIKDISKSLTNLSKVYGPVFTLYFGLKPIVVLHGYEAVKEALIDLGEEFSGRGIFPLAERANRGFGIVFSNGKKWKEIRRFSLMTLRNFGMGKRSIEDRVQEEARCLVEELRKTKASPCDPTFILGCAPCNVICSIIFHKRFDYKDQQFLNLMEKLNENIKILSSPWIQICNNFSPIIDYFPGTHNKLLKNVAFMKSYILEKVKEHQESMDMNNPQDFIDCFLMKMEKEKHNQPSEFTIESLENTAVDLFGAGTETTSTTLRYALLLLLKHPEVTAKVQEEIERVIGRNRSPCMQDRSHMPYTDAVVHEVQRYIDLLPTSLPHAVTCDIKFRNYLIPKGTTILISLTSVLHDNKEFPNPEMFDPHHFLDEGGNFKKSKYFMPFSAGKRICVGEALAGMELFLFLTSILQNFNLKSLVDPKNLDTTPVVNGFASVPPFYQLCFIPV

In general, AC50 refers to the concentration giving half of the maximal activity seen. For the compound `O=C(c1cc(-c2cccc(Cl)c2)nc2ccccc12)N1CCN(c2ccccn2)CC1`, in assay [1], the AC50 is 14.8 µM (active). As for `O=S(=O)(O)c1ccc2c(/N=N\c3c(O)ccc4ccccc34)cccc2c1`, the AC50 is 0.631 µM (inconclusive) in [2] and 3.16 µM (inconclusive) in [3]. `CCC(CC)NC(=O)CC(c1ccccc1)c1ccccc1`: the IC50 in assay [4] is > 47.1 µM (inactive). The EC50 in assay [5] was > 53 µM (inactive). `O=C(COc1cccc(NC(=O)c2cccc([N+](=O)[O-])c2)c1)c1ccc(Br)cc1`: the AC50 in assay [3] is 5.62 µM (inconclusive); in assay [6] it was 3.16 µM (inconclusive). Regarding `O=C(CN(C(=O)CSc1nc2ccccc2o1)c1cccc(F)c1)NC1CCCCC1`, the AC50 in assay [3] was 20 µM (inconclusive).

As to `CCC/C=C(\CCC)C(NC(=O)Cc1ccccc1)c1ccc(C(=O)OC)cc1` (centres undefined), the AC50 in [3] is 15.8 µM (inconclusive); in assay [6] it was 5.01 µM (inconclusive). With `CCC/C=C(\CCC)C(NS(=O)(=O)c1ccc(-c2ccccc2)cc1)c1ccc(C(=O)OC)cc1` (centres undefined), the figures for the half-maximal activity concentration (AC50) in [3], in assay [6] and in [7] were 6.31 µM (inconclusive), 39.8 µM (inconclusive) and 3.16 µM (inconclusive), respectively. As to `CC(=O)Oc1ccc(-c2csc(Nc3cccc(C)n3)n2)cc1`, the concentration at half-maximal activity (AC50) in assay [8] is 6.58 µM (active).

`Cc1c(Cl)c([N+](=O)[O-])nn1CCCC(=O)Nc1cc(Oc2ccccc2)cc([N+](=O)[O-])c1`: the IC50 in assay [4] is > 47.1 µM (inactive). The EC50 in [5] was > 53 µM (inactive).

Take `O=c1cc(N2CCCCC2)c(-c2ccccc2)nn1Cc1ccc(Cl)cc1`: in [8], the AC50 was 2.33 µM (active). Take `COc1cccc(-c2csc(N3CCN(CC(=O)NNC(=O)c4ccc(Cl)cc4)CC3)n2)c1`: the AC50 in assay [3] was 8.91 µM (inconclusive). As to `Cc1ccc(S(=O)(=O)N2CCN(C(=O)COc3ccc(NC(=O)c4ccco4)cc3)CC2)cc1`, in assay [8], the AC50 is > 195 µM (inactive). As for `Cc1ccc(Cl)cc1N(CC(=O)N1CCOCC1)S(C)(=O)=O`, in assay [4], the IC50 is > 47.1 µM (inactive). The EC50 in assay [5] is > 53 µM (inactive). Consider `COc1cc2c(cc1O)[C@H]1Cc3ccc(OC)c(O)c3CN1CC2`, for which the AC50 in assay [2] was 7.94 µM (inconclusive); in assay [3] it was 15.8 µM (inconclusive); in [9], 12.6 µM (inconclusive). Turning to `COCCn1c(=O)c(-c2ccc(Cl)cc2)nc2cnc(Nc3ccccc3)nc21`, in assay [3], the AC50 was 20 µM (inconclusive). Regarding `Cc1cccc(-c2cc3nc4c(c(NCc5ccco5)n3n2)CCCC4)c1`, the concentration at half-maximal activity (AC50) in [8] was 7.11 µM (active).

`CC(C)CN(CC(C)C)C(=O)CCCC(=O)N(CC(C)C)CC(C)C`: the IC50 in [4] was > 47.1 µM (inactive). Also, the EC50 in assay [5] was > 53 µM (inactive). Take `O=C(NCC1CCCO1)c1onc(CSc2cccc3ccccc23)c1C(=O)O` (centres undefined): in assay [4], the IC50 was > 47.1 µM (inactive). Moreover, the EC50 in [5] was > 53 µM (inactive). Regarding `CCOC(=O)c1cc2c(=O)c3cc(C)ccc3oc2nc1C`, in [4], the IC50 was > 47.1 µM (inactive). For the same compound, the EC50 in assay [5] is > 53 µM (inactive). As to `Cc1c(C(=O)Nc2nc(-c3ccccn3)cs2)oc2ccccc12`, the AC50 in [1] was 5.62 µM (active). For `Cc1nn(C)cc1CN(C)C(=O)c1ccc(OC2CCN(Cc3ccccn3)CC2)cc1`, the IC50 in assay [4] is > 47.1 µM (inactive). Also, the EC50 in assay [5] is > 53 µM (inactive). Regarding `FC(F)(F)c1cc(CCN2C(S)=NC[C@@H]2CC2CCCCC2)cc(C(F)(F)F)c1`, the EC50 in [10] was > 150 µM (not active); in assay [11] it was 5.13 µM (active). The AC50 in assay [8] was 5.79 µM (active). For the compound `COC(=O)c1c(NC(=O)C(C)(C)C)sc2c1C(C(=O)OC)CC2` (centres undefined), the AC50 is 14.1 µM (inconclusive) in [2] and 0.794 µM (inconclusive) in assay [3]. On to `O=C(Oc1ccccc1)N1CCC[C@@]2(CCN(c3ccncc3)C2)C1`, for which the AC50 in assay [3] and in assay [6] was 20 µM (inconclusive) each time. As to `CC(C)(C)OC(=O)NCCc1nnc(SCC(=O)Nc2cccc(Cl)c2)o1`, the AC50 in [3] and in assay [7] was 25.1 µM (inconclusive) in each case. Consider `Cc1ccnc(NC(=O)c2cccc(S(=O)(=O)N3CCCC3)c2)c1`, for which the IC50 in assay [4] is > 47.1 µM (inactive). Further, in [5], the EC50 was > 53 µM (inactive). Turning to `COc1ccc(NC2CCCN(C(=O)c3cccc(N4CCNC4=O)c3)C2)cc1` (centres undefined), the IC50 in assay [12] was 75.2 µM (active). In the case of `COc1ccc(CCNC(=O)C(=O)NCC2OCCN2S(=O)(=O)c2ccc(OC)cc2)cc1` (centres undefined), in assay [4], the IC50 was > 47.1 µM (inactive). In assay [5], the EC50 is > 53 µM (inactive).

With `O=c1c2ccccc2nc(/C=C/c2ccccc2)n1-c1ccccc1O`, the AC50 in assay [8] is 4.57 µM (active). For the compound `CCOc1ccc(C(=O)CCC(=O)N2CCN(c3ccc(O)cc3)CC2)cc1`, the AC50 in assay [8] was 5.57 µM (active). On the same count and under the same terms, then `CC(C)(C)OC(=O)NCc1ccc(NC(=O)c2[nH]cnc2C(=O)NCCCNC(=O)c2nc[nH]c2C(=O)Nc2ccc(CNC(=O)OC(C)(C)C)cc2)cc1`, with 1.75 µM (active). For `COc1ncnc(OC)c1S(=O)(=O)Nc1ccc(C(F)(F)F)cc1`, the AC50 in assay [1] is > 260 µM (inactive).

With `CC1C(=O)N(Cc2cn(CCC3OCCCO3)nn2)CCS(=O)(=O)N1Cc1ccc(-c2ccc(Cl)cc2)cc1` (centres undefined), the IC50 in assay [4] was > 47.1 µM (inactive). In assay [5], the EC50 was > 53 µM (inactive). For `Cc1onc(-c2ccccc2)c1C(=O)N/N=C/c1cc(Br)c(Br)o1`, the IC50 in [4] was > 47.1 µM (inactive). Besides, the EC50 in assay [5] is > 53 µM (inactive). Consider `CN(C)C(=O)C1CC(=O)OC12CCCCC2` (centres undefined), for which, in [4], the IC50 is > 47.1 µM (inactive). Moreover, the EC50 in [5] is > 53 µM (inactive). Taken in the same sequence, the figures for `CC(=O)NCc1ccc(C(=O)O)cc1` were > 47.1 µM (inactive) and > 53 µM (inactive). On to `C=C(CC[C@@H](O)C(C)(C)O)[C@H]1CC[C@]2(C)[C@@H]1CC[C@@H]1[C@@]3(C)CCC(=O)C(C)(C)C3CC[C@]12C` (some centres undefined), for which the AC50 in [8] is 1.75 µM (active). Turning to `CNCC[C@@H](Oc1ccccc1C)c1ccccc1` [ATOMOXETINE], the concentration at half-maximal activity (AC50) in assay [3] was 15.8 µM (inconclusive); in assay [9] it was 12.6 µM (inconclusive).
